The values that follow come from patent publication US9676771B2, “Compounds for inhibiting drug-resistant strains of HIV-1 integrase” (priority 2013, dated 2017).

One data set is described as follows: in vitro. It is filed as cell-based, human. The following applies: human, 50% reduction in the level of ATP in HOS cells. The procedure, abridged:
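Cells exposed to compounds over a concentration range for 48 hrs at 37° C. Viability read as cellular ATP by luciferase (ATPlite) luminescence after lysis, normalised to untreated cells; CC50 derived by regression fit.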

The subject of data set [1] is HIV-1 constructs containing wild-type IN. As to the kind of experiment: microbe, parasite or virus in culture. It is filed as cell-based.
The test system of data set [2] is HIV-1 constructs containing mutant IN G118R. Description: microbe, parasite or virus in culture. In kind it is cell-based. The following applies: for EC50: Human immunodeficiency virus 1. As for the experimental part: (§1) Single-Round HIV-1 Infectivity Assay.
(§2) Human embryonyl kidney cell culture cell line 293 was acquired from the American type Culture Collection (ATCC).
(§3) […]. […] The virus-containing supernatants were then harvested, clarified by low-speed centrifugation, filtrated, and diluted for preparation in infection assays. […] After compound incorporation and activation in the cell, 100 μL of virus-stock diluted to achieve a maximum luciferase signal between 0.2 and 1.5 RLUs was added to each well and further incubated at 37° C. for 48 hrs. […] Activity was normalized to infectivity in the absence of target compounds. KaleidaGraph (Synergy Software, Reading, Pa.) was used to perform regression analysis on the data. EC50 values were determined from the fit model.
(§4) pNLNgoMIVR^−ΔEnv.LUC has been described previously (Zhao et al. 2008). The integrase codon reading frame was removed from pNLNgoMIVR^−ΔEnv LUC (between KpnI and SalI sites) and placed between the KpnI and SalI sites of pBluescript II KS+. Using that construct as the wild-type template, we prepared the following HIV-1 Integrase-resistant mutants via the QuikChange II XL (Stratagene, La Jolla, Calif.) site-directed mutagenesis protocol: H51Y, T66I, E92Q, G118R, Y143R, Q148H, Q148K, N155H, R263K, G140S+Q148H, G140A+Q148K, E138K+Q148K, and H51Y+R263K. The following sense with cognate antisense (not shown) oligonucleotides (Integrated DNA Technologies, Coralville, Iowa) were used in the mutagenesis: H51Y, 5′-[…]-3; T66I, 5′-[…]-3′; E92Q, 5′-[…]-3′; G118R, 5′-[…]-3′; E138K, 5′-[…]-3; G140A, 5′-[…]-3; G140S, 5′-[…]-3′; Y143R, 5′-[…]-3′; Q148H, 5′-[…]-3′; Q148K, 5′-[…]-3; N155H, 5′-[…]-3′; R263K 5′-[…]-3′. The double mutation G140S+Q148H was constructed by using the previously generated Q148H mutant and the appropriate oligonucleotide for the 2nd mutation, G140S. The double mutation G140A+Q148K was made by using the Q148K mutant and the appropriate oligonucleotide for the 2nd mutation, G140A. The double mutation E138K+Q148K was made by using the Q148K mutant and the appropriate oligonucleotide for the 2nd mutation, E138K. The double mutation H51Y+R263K was constructed by using the previously generated H51Y mutant and the appropriate oligonucleotides for the 2nd mutation, R263K. The DNA sequence of each construct was verified independently by DNA sequence determination. The mutant integrase coding sequences from pBluescript II KS+ were then subcloned into pNLNgoMIVR^−ΔEnv LUC (between the KpnI and SalI sites) to produce the full-length mutant HIV-1 Integrase constructs. These DNA sequences were additionally checked independently by DNA sequence determination.

In data set [3] the test system is HIV-1 constructs containing mutant IN R263K. Description: Single-round HIV-1 infectivity assay, IN mutant R263K. It is filed as cell-based. Conditions: Human immunodeficiency virus 1. The protocol:
as §1, §2, §3, §4

Data set [4] concerns HIV-1 constructs containing mutant IN Y143R. As to the kind of experiment: microbe, parasite or virus in culture. The following applies: for EC50: Human immunodeficiency virus 1. In kind it is cell-based. Summed up: (§5)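 Single-round infectivity assay using luciferase-reporter pNLNgoMIVR−ΔEnv.LUC virus carrying site-directed integrase mutants, produced in 293 cells. Activity normalized to infectivity without compound; EC50 from regression fit.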

The test system of data set [5] is HIV-1 constructs containing mutant IN N155H. As to the kind of experiment: microbe, parasite or virus in culture. In kind it is cell-based. The following applies: for EC50: Human immunodeficiency virus 1. The procedure, abridged:
as §5

Data set [6] relates to HIV-1 constructs containing mutant IN G140S-Q148H. Description: microbe, parasite or virus in culture. In kind it is cell-based. Conditions: for EC50: Human immunodeficiency virus 1. The procedure, abridged:
as §5

The mark [7] stands for this setting: Human immunodeficiency virus 1, Table 8, WT IN, read-out: EC50 (nM, WT).
Where [8] appears, read: Table 8, read-out: EC50 (nM, IN mutants) G118R.
Where [9] appears, read: Table 8, read-out: EC50 (nM, IN mutants) R263K.
The mark [10] stands for this setting: Table 8, read-out: EC50 (nM, IN mutants) Y143R.
Where [11] appears, read: Table 8, read-out: EC50 (nM, IN mutants) N155H.
The mark [12] stands for this setting: Table 8, read-out: EC50 (nM, IN mutants) G140S/Q148H.
The mark [13] stands for this setting: Human immunodeficiency virus 1, Table 3, WT IN, read-out: EC50 (nM, WT).
Setting [14] is: Table 6, read-out: EC50 (nM, IN Mutants) G118R.
Setting [15] is: Table 6, read-out: EC50 (nM, IN Mutants) R263K.
Where [16] appears, read: Table 3, read-out: EC50 (nM, IN Mutants) Y143R.
Where [17] appears, read: Table 3, read-out: EC50 (nM, IN Mutants) N155H.
The mark [18] stands for this setting: Table 3, G140S-Q148H double mutant, read-out: EC50 (nM, IN Mutants) SH.
Where [19] appears, read: Human immunodeficiency virus 1, read-out: EC50 (nM), Table 9, WT, normal 5% serum.

Where two headings read alike, the source gives them in different places.

For `C[C@@H]1CCO[C@H]2Cn3cc(C(=O)NCc4ccc(F)cc4F)c(=O)c(O)c3C(=O)N12` [DTG, dolutegravir, reference compound], the CC50 in “in vitro” (Table 8) is greater than 250000 nM. For the same compound, the EC50 amounted to 1.6 nM in data set [1] (setting [7]); 13 ± 5 nM in data set [2] (setting [8]); 11.3 nM in data set [3] (setting [9]); 4.3 nM in data set [4] (setting [10]); 3.6 nM in data set [5] (setting [11]); 5.8 nM in data set [6] (setting [12]).

For `O=C(NCc1ccc(F)cc1F)c1c(O)c2cccnc2n(O)c1=O` [XZ351, N-(2,4-difluorobenzyl)-1,4-dihydroxy-2-oxo-1,2-dihydro-1,8-naphthyridine-3-carboxamide], the CC50 in “in vitro” (Table 2) stood at 137000 nM; in “in vitro” (Table 3), 137000 ± 20100 nM; in the data set “in vitro” (Table 6), 137000 ± 20100 nM. Also, the SI in data set [1] is reported as 22,767. Also, the “Si (selectivity index)” value in data set [1] is on record as 22,032. For the same compound, the EC50 in data set [1] (Human immunodeficiency virus 1, Table 2, cells infected with lentiviral vector harboring WT IN, read-out: EC50) stood at 6 nM; in data set [1] (setting [13]), 6.2 ± 2.9 nM; in data set [2] (setting [14]), 107 ± 40 nM; in data set [3] (setting [15]), 35.9 ± 7.6 nM; in data set [4] (setting [16]) it was 11.3 ± 1.93 nM; in data set [5] (setting [17]) it was 30.5 ± 7.76 nM. For the same compound, the EC50 in data set [6] (setting [18]) came out at 308 ± 125 nM. Also, in data set [2], the “Integrase Mutants G118R, fold-change in EC50 relative to WT” value was 6 x. Besides, in data set [4], the “Integrase Mutants Y143R, fold-change in EC50 relative to WT” value was 2 x. Moreover, the “Integrase Mutants N155H, fold-change in EC50 relative to WT” value in data set [5] was 5 x. Also, the “Integrase Mutants SH (G140S-Q148H), fold-change in EC50 relative to WT” value in data set [6] stood at 50 x.

Consider `COC(=O)CNc1c(C(=O)NCc2ccc(F)cc2F)c(=O)n(O)c2ncccc12` [XZ379, Methyl 2-((3-((2,4-difluorobenzyl)carbamoyl)-1-hydroxy-2-oxo-1,2-dihydro-1,8-naphthyridin-4-yl)amino)acetate], for which the CC50 in “in vitro” (Table 3) and in “in vitro” (Table 6) was greater than 250000 nM in each case. Further, the EC50 in data set [1] (setting [19]) was 3.8 ± 1.2 nM; in data set [1] (setting [13]), 3.8 ± 1.2 nM; in data set [2] (setting [14]), 41.3 ± 18 nM; in data set [3] (setting [15]) it was 25.9 ± 8.2 nM; in data set [4] (setting [16]), 4.6 ± 2.2 nM; in data set [5] (setting [17]) it was 19 ± 6.9 nM. For the same compound, the EC50 in data set [6] (setting [18]) was 35.5 ± 15.9 nM. The “Si (selectivity index)” value in data set [1] (Table 3, ratio of CC50 to EC50) is >25,000.

Regarding `CC(=O)OCCNc1c(C(=O)NCc2ccc(F)cc2F)c(=O)n(O)c2ncccc12` [XZ402, 2-((3-((2,4-difluorobenzyl)carbamoyl)-1-hydroxy-2-oxo-1,2-dihydro-1,8-naphthyridin-4-yl)amino)ethyl acetate], the CC50 in the data set “in vitro” (Table 3) and in the data set “in vitro” (Table 6) was greater than 250000 nM throughout. In addition, the EC50 in data set [1] (setting [19]) came out at 4.5 ± 1.5 nM; in data set [1] (setting [13]), 4.5 ± 1.5 nM; in data set [2] (setting [14]) it was 43.5 ± 11.2 nM; in data set [3] (setting [15]) it was 16 ± 5.1 nM; in data set [4] (setting [16]), 4.8 ± 2.9 nM; in data set [5] (setting [17]), 3.1 ± 0.3 nM. The EC50 in data set [6] (setting [18]) turned out to be 35.1 ± 13.6 nM. Also, the “Si (selectivity index)” value in data set [1] (Table 3, ratio of CC50 to EC50) is >25,000.

Take `Nc1c(C(=O)NCc2ccc(F)cc2F)c(=O)n(O)c2ncc(CCCCCO)cc12` [XZ419, 4-Amino-N-(2,4-difluorobenzyl)-1-hydroxy-6-(5-hydroxypentyl)-2-oxo-1,2-dihydro-1,8-naphthyridine-3-carboxamide]: the CC50 in the data set “in vitro” (Table 8) is greater than 250000 nM. For the same compound, the EC50 in data set [1] (setting [19]) came out at 1.3 ± 0.2 nM; in data set [1] (setting [7]), 1.3 nM; in data set [2] (setting [8]) it was 5.3 nM; in data set [3] (setting [9]) it was 2.6 nM; in data set [4] (setting [10]), 3 nM; in data set [5] (setting [11]), 2.4 nM. Also, in data set [6] (setting [12]), the EC50 is 6.9 nM.

In the case of `Nc1c(C(=O)NCc2ccc(F)cc2F)c(=O)n(O)c2ncc(CCCO)cc12` [XZ423, 4-Amino-N-(2,4-difluorobenzyl)-1-hydroxy-6-(3-hydroxypropyl)-2-oxo-1,2-dihydro-1,8-naphthyridine-3-carboxamide], in “in vitro” (Table 8), the CC50 was greater than 250000 nM. For the same compound, the EC50 was determined as 3.1 nM in data set [1] (setting [7]); 10 nM in data set [2] (setting [8]); 2.5 nM in data set [3] (setting [9]); 2.8 nM in data set [4] (setting [10]); 8.5 nM in data set [5] (setting [11]); 13.4 nM in data set [6] (setting [12]).

As for `CC(=O)OCCCc1cnc2c(c1)c(N)c(C(=O)NCc1ccc(F)cc1F)c(=O)n2O` [XZ424, 3-(5-Amino-6-((2,4-difluorobenzyl)carbamoyl)-8-hydroxy-7-oxo-7,8-dihydro-1,8-naphthyridin-3-yl)propyl acetate], in the data set “in vitro” (Table 8), the CC50 is greater than 250000 nM. Moreover, the EC50 in data set [1] (setting [7]) is 1.4 nM; in data set [2] (setting [8]) it was 5.9 nM; in data set [3] (setting [9]), 1.75 nM; in data set [4] (setting [10]), 2.93 nM; in data set [5] (setting [11]), 5.4 nM; in data set [6] (setting [12]) it was 13 nM.

As for `Nc1c(C(=O)NCc2ccc(F)cc2F)c(=O)n(O)c2ncc(CCCCCCO)cc12` [XZ426, 4-Amino-N-(2,4-difluorobenzyl)-1-hydroxy-6-(6-hydroxyhexyl)-2-oxo-1,2-dihydro-1,8-naphthyridine-3-carboxamide], in the data set “in vitro” (Table 8), the cytotoxic concentration (CC50) was greater than 250000 nM. The EC50 in data set [1] (setting [19]) is 2.3 ± 0.6 nM; in data set [1] (setting [7]), 2.33 nM; in data set [2] (setting [8]), 6.4 nM; in data set [3] (setting [9]), 8.4 nM; in data set [4] (setting [10]), 2.1 nM; in data set [5] (setting [11]), 2.7 nM. In data set [6] (setting [12]), the EC50 stood at 9.4 nM.

Turning to `Nc1c(C(=O)NCc2ccc(F)cc2F)c(=O)n(O)c2ncc(CCCCCCCCO)cc12` [XZ433, 4-Amino-N-(2,4-difluorobenzyl)-1-hydroxy-6-(8-hydroxyoctyl)-2-oxo-1,2-dihydro-1,8-naphthyridine-3-carboxamide], the CC50 in the data set “in vitro” (Table 8) is greater than 250000 nM. Also, the EC50 was found to be 3.7 nM in data set [1] (setting [7]); 11.1 nM in data set [2] (setting [8]); 3.8 nM in data set [3] (setting [9]); 3.2 nM in data set [4] (setting [10]); 6.5 nM in data set [5] (setting [11]); 7.7 nM in data set [6] (setting [12]).

In the case of `COC(=O)CCc1cnc2c(c1)c(N)c(C(=O)NCc1ccc(F)cc1F)c(=O)n2O` [XZ434, Methyl 3-(5-amino-6-((2,4-difluorobenzyl)carbamoyl)-8-hydroxy-7-oxo-7,8-dihydro-1,8-naphthyridin-3-yl)propanoate], the CC50 in the data set “in vitro” (Table 8) was greater than 250000 nM. For the same compound, the EC50 in data set [1] (setting [19]) is 0.7 ± 0.2 nM; in data set [1] (setting [7]), 0.67 nM; in data set [2] (setting [8]) it was 4.8 nM; in data set [3] (setting [9]), 0.5 nM; in data set [4] (setting [10]) it was 0.67 nM; in data set [5] (setting [11]), 2.3 nM. The EC50 in data set [6] (setting [12]) was determined as 5.3 nM.
